Laboratory results published in patent US11970583B2, “Therapeutic dendrimer” (Starpharma Pty Ltd., priority 2018, dated 2024).
“Also recorded” adds a separate entry of the source. Read-outs that look alike come from different tables or passages of the source.

How the values were obtained:
[1] = cited from earlier work
[2] = 2.5 mg/kg
[3] = cited from earlier work; remark: listed apart in the source
[4] = Single-dose toxicokinetic study, intravenous bolus, free (unconjugated) cabazitaxel in plasma; assay type: in vivo, Sprague Dawley Crl:CD (SD) rats; conditions: for Cmax free (unconjugated) Cabazitaxel: i.v. bolus; for % JEVTANA ® brand cabazitaxel dose: relative to JEVTANA 2.5 mg/kg
Experimental: A single-dose toxicokinetic study of SPL-9048 and SPL-9005 was carried out by intravenous bolus injection in rats with a 21-day observation period. The control, 0.9% sodium chloride, was prepared and dispensed on the day of dosing. SPL-9048 and SPL-9005 were prepared at appropriate concentrations to meet dose level requirements. The dosing formulations were prepared and dispensed on each day of dosing and were used within 3 hours of preparation. The required amount of test article was weighed out and dissolved in a suitable volume of normal saline with gentle swirling and the pH was recorded. Cabazitaxel (JEVTANA® brand cabazitaxel) was prepared at appropriate concentration to meet dose level requirements. […] This stock solution was further diluted with normal saline to produce the final dosing concentration within 30 minutes.
The animals used were male and female Sprague Dawley Crl:CD (SD) rats. The animals were 10 to 14 weeks old and weighed between 327 and 565 g for males and 212 and 316 g for females at initiation of dosing. Animals were acclimated to their designated housing for at least 4 days before the first day of dosing. Animals were assigned to groups by a stratified randomization scheme designed to achieve similar group mean body weights. Males and females were randomised separately. Animals in poor health or at extremes of body weight ranges were not assigned to groups. PMI Nutrition International Certified Rodent Chow No. 5CR4 was provided ad libitum throughout the study except during designated procedures. The same diet in meal form was also provided, as needed. Municipal tap water, after treatment by reverse osmosis and ultraviolet irradiation, was freely available to each animal via an automatic watering system, except during designated procedures. Water bottles were also provided, as required. Animal were socially housed for psychological/environmental enrichment and were provided with items such as a chewing object, except when interrupted by study procedures/activities. Veterinary care was available throughout the course of the study.
The test and control articles were administered to the appropriate animals at the amounts indicated in the table below via a single intravenous (slow bolus) injection to the tail vein.
The dose volume for each animal was based on the most recent body weight measurement. The animals were temporarily restrained for dose administration and were not sedated. The doses were given using a syringe with attached needle. The first day of dosing for each group was designated as Day 1. The comparator dosing formulation (JEVTANA® brand Cabazitaxel) and test articles were maintained between 15 and 30° C. during dosing.
Toxicokinetic parameters were estimated using Phoenix pharmacokinetic software. A non-compartmental approach consistent with the intravenous route of administration was used for parameter estimation.

[5] = Toxicology study in rats at 1 mg/kg (neutropenia); assay type: in vivo; conditions: for neutropenia (FIG. 6), day 7 in particular: male and female rats
From the text: References to amounts dosed in mg/kg for the dendrimeric compound are to the amounts of Cabazitaxel that may theoretically be released by the dendrimer.

[6] = tested on: MDA-MB-231 tumour xenografts
Experimental: Cabazitaxel was prepared fresh for each dosing day.
Tumour volumes were determined twice weekly and were expressed as mean tumour volume (±SEM).
The data represent the mean percent weight change from baseline (Day 1) for each group; bars SEM.

[7] = tested on: CAPAN-1 tumour xenografts; assay: CAPAN-1 mouse xenograft pancreatic cancer model study; assay type: in vivo, Female NOD-SCID Interleukin-2 receptor gamma chain null mice; conditions: for Tumour Growth inhibition (%): Day 37, Gemcitabine 80 mg/kg i.p., ABRAXANE 40 mg/kg i.v., SPL9048 […] i.v.; for Tumour Growth inhibition (%) / anti-tumour efficacy (mean tumour volume, FIG. 7): dosing days 1, 8, 15; for anti-tumour efficacy (mean tumour volume, FIG. 7): study to day 107
Experimental: Gemcitabine and ABRAXANE® were obtained from the Peter MacCallum Cancer Centre pharmacy, and were dissolved in saline solution immediately prior to dosing.
Female NOD-SCID Interleukin-2 receptor gamma chain null mice (aged 9 weeks) were inoculated subcutaneously on the flank with 5×10^6 CAPAN-1 cells in PBS:Matrigel (1:1).
Tumour growth data was analysed in GraphPad Prism for ANOVA followed by Dunnett's post ad-hoc test.

[8] = Stability in solution (precipitation); assay type: physicochemical; conditions: compared with SPL9049
[9] = tested on: progressive metastatic disease; assay: Phase 1 dose escalation study: treatment response and biomarkers; assay type: in vivo, human patients
Experimental: Biomarker, PK and other data were collected from patients enrolled in the study. Patients were dosed every 3 weeks, over 1 hour using an infusion pump. Patients all had progressive metastatic disease. The patient population was heavily pre-treated with a range of chemotherapeutic agents as described in the below table.

[10] = tested on: DU145 tumour xenografts; assay: DU145 mouse xenograft prostate cancer model study; assay type: in vivo, Male SCID mice
Experimental: Cabazitaxel was prepared fresh for each dosing day. […] Dosing solutions at 4.5 and 5.5 mg/mL were prepared from this working stock immediately prior to injection.
Male SCID mice (age 7-8) weeks were inoculated subcutaneously in the flank with 3×10^6 DU145 cells in PBS:Matrigel (1:1). Mice were weighed and tumours measured 2-3 times weekly using electronic callipers. […] Treatment groups were saline, Cabazitaxel (9 and 11 mg/kg), SPL-9048 (9 mg/kg) and SPL-9005 (25 mg/kg). […] The experiment was ended on Day 126, or earlier if an ethical endpoint was met. Survival curves were analysed using the Mantel Cox log rank test.
Tumour volumes were determined 2-3 times weekly and are expressed as mean tumour volume (±SEM).
Graphs are shown for each group until fewer than 6 animals remained in each group.

[11] = Separate tolerability study in female SCID mice; assay type: in vivo; conditions: 25 mg/kg Cabazitaxel equivalent

Molecule: CO[C@H]1C(=O)[C@]2(C)[C@@H](OC)C[C@H]3OC[C@@]3(OC(C)=O)[C@H]2[C@H](OC(=O)c2ccccc2)[C@]2(O)C[C@H](OC(=O)[C@H](O)[C@@H](NC(=O)OC(C)(C)C)c3ccccc3)C(C)=C1C2(C)C [Cabazitaxel]
- mean Cmax ([1]; 25 mg/m2, 1-hour IV, n=67): 226 ng/mL
- Tmax (end of infusion) ([1]; 25 mg/m2, 1-hour IV): 60 min
- mean AUC ([1]; 25 mg/m2, 1-hour IV): 991 ng·h/mL
- patients with Grade 3 or 4 febrile neutropenia ([1]; in vivo): 8%
- patients with neutropenia (all grades) ([1]; in vivo): 94%
- test article related hematology changes ([2]; by Day 2 through Day 7, males and females): generally greater
- patients with febrile neutropenia ([3]; 25-mg/m2 dose): 4%
- patients with prolonged grade 4 neutropenia ([3]; 25-mg/m2 dose): 4%
- AUC concentration ([3]; 25-mg/m^2 dose): 642±320 mcg/L per hour
- Cmax ([3]; 25-mg/m^2 dose): 535 ± 305 ng/mL
- dose eliminated within 2 weeks ([3]; in vivo): Approximately 80%
- patients with diarrhea ([3]; in vivo): 56%
- patients with fatigue ([3]; in vivo): 36%
- patients with grade 1 hypersensitivity reactions (flushing, dizziness, chest tightness) ([3]; in vivo): 8%
- patients with nausea ([3]; in vivo): 40%
- patients with neurotoxicity ([3]; in vivo): 36%
- patients with vomiting ([3]; in vivo): 16%
- intermediate elimination phase, average t½ ([3]; triphasic model, plasma): 78 ± 36 min
- prolonged terminal elimination phase, average t½ ([3]; triphasic model, plasma): 77.3 ± 45.5 h
- rapid initial elimination phase, average terminal half-life t½ ([3]; triphasic model, plasma): 2.6 ± 1.4 min
- Cabazitaxel measurability in plasma over time ([4]; 2.5 mg/kg): not measurable more than 24 hours after
- AUC0-t free Cabazitaxel ([4]; 2.5 mg/kg drug eq., males): 679.99 ng·h/mL
- Cmax free (unconjugated) Cabazitaxel ([4]; 2.5 mg/kg drug eq., males): 801.05 ng/mL
- % JEVTANA ® brand cabazitaxel dose ([4]; 2.5 mg/kg drug eq., males): 100%
- Cmax ([4]; Sprague Dawley Crl:CD (SD), rat, plasma, intravenous, 2.5 mg/kg): 801 ng/mL
- Tmax ([4]; male, Sprague Dawley Crl:CD (SD), rat, plasma, intravenous, 2.5 mg/kg, males): 2 min
- rebound after neutropenia at day 14 [5]: substantial rebound at day 14
- neutropenia (FIG. 6), day 7 in particular [5]: dip in values
- tumours reaching ethical tumour volume endpoint by day 98 ([6]; 9 mg/kg i.v. days 1, 8, 15): 9 of 10

Molecule: Nc1ccn([C@@H]2O[C@H](CO)[C@@H](O)C2(F)F)c(=O)n1 [Gemcitabine, reference compound]
- Tumour Growth inhibition (%) [7]: 40%
- anti-tumour efficacy (mean tumour volume, FIG. 7) [7]: Neither Gemcitabine or ABRAXANE® were effective in this model

Molecule: BHALys[Lys]32[α-DGA-Cabazitaxel]32†[ε-PEG˜2100]32‡ [SPL9048]
- stability in solution (e.g. with regard to precipitation) [8]: increased stability in solution
- dose at which biomarker response occurs ([9]; FIGS. 8 and 9): ≥ 10 mg/m^2
- CA-125 (FIG. 9) ([9]; ovarian cancer, after two doses at 15 mg/m^2): declining
- Stable disease ([9]; patient: digital papillary adenocarcinoma (stage IV), 2 to 15 mg/m^2, 12 cycles): Stable disease > 33 weeks.
- CA-125 decline ([9]; patient: ovarian (stage IV), 15 to 20 mg/m^2, 7 cycles, over 15 weeks): CA-125 declining (60%) from 652
- CA-125 after decline ([9]; patient: ovarian (stage IV), from 652, over 15 weeks, after one cycle at 15 mg/m^2): to 255 kU/L (over 15 weeks) after
- CA 19-9 decline ([9]; patient: pancreatic adenocarcinoma (stage IV), 20 mg/m^2, 3 cycles, after one cycle): CA 19-9 declining (28%) from 177
- CA 19-9 after decline ([9]; patient: pancreatic adenocarcinoma (stage IV), 20 mg/m^2, from 177 baseline, after one cycle): baseline to 127 kU/L after one
- CA 19-9 ([9]; patient: pancreatic adenocarcinoma, 20 mg/m^2, 1 cycle): Stable CA 19-9, abdominal pain
- abdominal pain and opioid treatment ([9]; patient: pancreatic adenocarcinoma, 20 mg/m^2, after one cycle): subsided and cessation of opioid
- Stable disease ([9]; patient: prostate (stage III), 5 to 20 mg/m^2, 13 cycles): Stable disease > 35 weeks.
- PSA after decline ([9]; patient: prostate (stage III), 5 to 20 mg/m^2, declined from 106 over 12 weeks): PSA declined from 106 to 25 μg/L
- Stable disease ([9]; patient: prostate, 20 mg/m^2, 5 cycles): Stable disease > 6 weeks
- PSA after decline ([9]; patient: prostate, 20 mg/m^2, 5 cycles, from 262, in 3 weeks after three cycles): 86 μg/L (in 3 weeks) after three
- PSA stability ([9]; patient: prostate, 5 cycles, at 5 mg/m^2): Preliminary signs of PSA stability
- PSA (FIG. 8) ([9]; prostate cancer patients, multiple doses at 10 mg/m^2, continuing at 20 mg/m^2): declining
- toxicity overall [2]: Reduced toxicity
- AUC0-t free Cabazitaxel ([4]; 1 mg/kg drug eq., males): 445.00 ng·h/mL
- Cmax free (unconjugated) Cabazitaxel ([4]; 1 mg/kg drug eq., males): 14.13 ng/mL
- % JEVTANA ® brand cabazitaxel dose ([4]; 1 mg/kg drug eq., males): 65%
- AUC0-t free Cabazitaxel ([4]; 2.5 mg/kg drug eq., males): 1239.99 ng·h/mL
- Cmax free (unconjugated) Cabazitaxel ([4]; 2.5 mg/kg drug eq., males): 36.89 ng/mL
- % JEVTANA ® brand cabazitaxel dose ([4]; 2.5 mg/kg drug eq., males): 182%
- rebound after neutropenia at day 14 [5]: virtually no rebound
- neutropenia (FIG. 6), day 7 in particular [5]: lesser/no dip in values
- antitumour efficacy (mean tumour volume, FIG. 1) ([10]; 9 mg/kg i.v. Days 1, 8 and 15, to Day 126): complete tumour regression with no regrowth observed in any of the animals on Day 126
- tolerability (body weight, FIG. 2) ([10]; male mice, 9 mg/kg i.v. Days 1, 8, 15, 9 mg/kg): overall well tolerated; also recorded: better tolerated than SPL9005
- max weight loss ([10]; male mice, 9 mg/kg, on Day 20): −10%
- Tumour Growth inhibition (%) [7]: 107%
- tumour growth inhibition compared with ABRAXANE ([7]; […] i.v. vs 40 mg/kg i.v.): more effectively than ABRAXANE®
- anti-tumour efficacy (mean tumour volume, FIG. 7) [7]: complete regression of CAPAN-1 tumours for the duration of the study
- tolerability (body weight, FIG. 4) ([6]; 9 and 10 mg/kg): overall well tolerated
- antitumour efficacy (mean tumour volume, FIG. 3) ([6]; 9 and 10 mg/kg i.v. days 1, 8 and 15): complete tumour regression
- survival ([6]; both doses (9 and 10 mg/kg)): significantly extended survival beyond that of Cabazitaxel

Molecule: BHALys[Lys]32[α-TDA-Cabazitaxel]32 †[ε-PEG˜2100]32‡ [SPL9005]
- mean weight loss [11]: below 10%
- AUC0-t free Cabazitaxel ([4]; 1 mg/kg drug eq., males): 202.94 ng·h/mL
- Cmax free (unconjugated) Cabazitaxel ([4]; 1 mg/kg drug eq., males): 4.41 ng/mL
- % JEVTANA ® brand cabazitaxel dose ([4]; 1 mg/kg drug eq., males): 30%
- AUC0-t free Cabazitaxel ([4]; 2.5 mg/kg drug eq., males): 548.96 ng·h/mL
- Cmax free (unconjugated) Cabazitaxel ([4]; 2.5 mg/kg drug eq., males): 9.29 ng/mL
- % JEVTANA ® brand cabazitaxel dose ([4]; 2.5 mg/kg drug eq., males): 81%
- male mice recovered to +5/10% starting weight ([10]; 25 mg/kg, after day 40): 2/10
- male mice with >20% weight loss ([10]; 25 mg/kg, after third dose, approx. day 25): 8/10
